Assay results: paper PMC3976407, “Inhibition of Fatty Acid Binding Proteins Elevates Brain Anandamide Levels and Produces Analgesia” (PLoS ONE, 2014)

Key:
[1] = test system: acetic acid-induced writhing in mice; experiment: Acetic acid-induced writhing; format: in vivo, mouse; conditions: for Effect upon acetic acid-induced writhing: 20 mg/kg, subcutaneous, 60 min before acetic acid
Method: Mice were acclimated to the laboratory environment for at least two hours and were habituated to the testing chamber for 30 min prior to acetic acid challenge. SBFI26, SBFI50, SBFI60, and SBFI62 (20 mg/kg) were administered via the subcutaneous route 60 min before acetic acid. Rimonabant, SR144528, GW6471, and naloxone were given 10 min before the inhibitors via the subcutaneous route. The mice subsequently received an i.p. injection of acetic acid (0.6% in sterile saline, 10 μl/g) and were placed in observation chambers. Abdominal stretches (marked by extension of the body and hind limbs) were counted for 20 min starting at 5 min post-injection.

FABP5 [2] = biological target: T1, FABP5 (Homo sapiens, UniProt Q01469); experiment: NBD-stearate fluorescence displacement binding; conditions: averages ± S.E. of three independent experiments
Method: Inhibitory constant (Ki) values were elucidated utilizing NBD-stearate fluorescence displacement as described previously, [31]. The tests were performed in 96-well plates containing inhibitors (0.1 – 50.0 μM), FABP, and NBD-stearate. Fluorescence intensity was measured with a FLUOstar OPTIMA spectrofluorometer with excitation and emission wavelengths of 460 and 544 nm, respectively.

FABP3 [3] = biological target: T2, FABP3 (Homo sapiens, UniProt P05413); experiment: NBD-stearate fluorescence displacement binding
Method: (§1) Inhibitory constant (Ki) values were elucidated utilizing NBD-stearate fluorescence displacement as described previously [9], [31]. The tests were performed in 96-well plates containing inhibitors (0.1 – 50.0 μM), FABP, and NBD-stearate. Fluorescence intensity was measured with a FLUOstar OPTIMA spectrofluorometer with excitation and emission wavelengths of 460 and 544 nm, respectively.

[4] = test system: carrageenan-induced thermal hyperalgesia and paw edema in mice; experiment: Carrageenan-induced paw edema and thermal hyperalgesia; format: in vivo, mouse; conditions: 20 mg/kg, i.p.
Method: Paw edema was induced by injecting 1% λ-carrageenan (20 μl, in sterile saline) into the plantar surface of the left hind paw using a 30 gauge needle attached to a glass syringe (Hamilton Company). Paw diameters were measured before carrageenan injection and 4 or 24 hours after injection using digital electronic calipers (Fisher) and expressed to the nearest ± 0.01 mm. SBFI26, SBFI50, SBFI60, and SBFI62 were dissolved in DMSO:cremophor-EL:saline (4% DMSO:10% Cremophor-EL) and administered (20 mg/kg, i.p.) 60 min prior to injection of carrageenan. Receptor antagonists were injected 10 min before the inhibitors. Rimonabant and SR144528 (3 mg/kg, i.p.) were dissolved in ethanol:cremophor-EL:saline (1∶1∶18) while GW6471 (4 mg/kg, i.p.) was dissolved in DMSO:cremophor-EL:saline (2% DMSO:5% Cremophor-EL). Edema is reported as the change in paw diameter at 24 hr compared to the baseline. Thermal hyperalgesia was measured using the Hargreaves plantar apparatus (Ugo Basile) as previously reported.

FABP7 [5] = biological target: T3, FABP7 (Homo sapiens, UniProt O15540); experiment: NBD-stearate fluorescence displacement binding
Method: as §1

[6] = test system: formalin-induced nociception in mice; experiment: Formalin test; format: in vivo, mouse; conditions: 20 mg/kg, i.p.; for Effect upon first phase of formalin-induced nociception: first phase 0–5 min
Method: Mice were habituated to the observation chamber (Plexiglas box, 25 cm×25 cm×25 cm) for 30 min prior to formalin injection. Mice were administered FABP inhibitors 60 min prior to formalin. The animals subsequently received an injection of formalin (2.5% in saline, 20 μl) into the plantar surface of the right hind paw using a 30 gauge needle and were immediately placed back into the observation chamber and nocifensive behavior (time spent licking or biting the paw) was recorded for 60 min. Nocifensive behavior was scored during the first phase (0–5 min) and the second phase (∼15–45 min) of the formalin test.

FABP5 [7] = biological target: T1, FABP5; design: method as in PMID 22170058; conditions: determined previously ref 9; cited from earlier work
FABP3 [8] = biological target: T2, FABP3; design: method as in PMID 22170058; conditions: determined previously ref 9; cited from earlier work
FABP7 [9] = biological target: T3, FABP7; design: method as in PMID 22170058; conditions: determined previously ref 9; cited from earlier work
HeLa cells = experiment: Cytotoxicity, MTT colorimetric assay; format: cell-based; conditions: 24 hr incubation, n = 3
Method: Cytotoxicity of the FABP inhibitors SBFI26 and BMS309403 were examined using the MTT [3-(4,5-dimethylthiazol-2-yl)-2,5 diphenyl tetrazolium bromide] colorimetric assay. HeLa cells were seeded into 96-well plates (15,000 cells/well) and incubated for 24 hours at 37°C in DMEM supplemented with 10% FBS, penicillin (100 U/mL) and streptomycin (100 μg/mL). The cells were subsequently washed with PBS and treated with serum-free DMEM containing 10 nM to 1 mM SBFI26, BMS309403, or 5 mM hydrogen peroxide as a positive control. Following a 24 hr incubation, the cells were washed with PBS and treated with MTT (0.5 mg/mL in PBS) for 4 hrs. The cells were subsequently solubilized using DMSO and the absorbance was read at 562 nm in a microplate reader.

rats subjected to CCI = experiment: Rat neuropathic pain model (chronic constriction injury of the sciatic nerve); format: in vivo; conditions: 20 mg/kg i.p.
Excerpt: Male Fisher 344 rats were habituated and pre-injury evoked responses were obtained. The Hargreaves test was used to assess thermal hyperalgesia. Briefly, plexiglass enclosures were set atop a plexiglass platform and infrared source set at 50% power located under the platform was used as the heat stimulus (Ugo Basile). A 200 mW, 535 nm diode laser was mounted in an adjustable stand placed beneath the plexiglass platform, and was used as an alternative heat stimulus for some of the animals in this study. The latency time to hind paw lift during heating of the plantar surface was recorded. Five recordings were obtained on each hind paw with at least 2 min rest between measurements. The maximum time for exposure to the infrared or diode laser source was 30.5 s to avoid any possible tissue injury. For mechanical threshold measurements, the animal enclosures rested on a screen with mesh of 0.5 cm spacing. Following acclimation, an electronic von Frey Anesthesiometer (IITC Life Sciences) was applied with increasing pressure to the plantar surface of the hind paw until the animals lifted the hind paw. The number of grams of force applied by the probe to induce withdrawal was recorded. Five recordings were obtained on each hind paw with at least 3 min between measurements. For CCI surgeries, our procedure closely followed that reported previously. Briefly, each animal received an i.p. injection of ketamine/xylazine (75 mg/kg and 10 mg/kg, respectively). The hind leg was surgically prepped and the anesthetized animal placed prone on an sterile towel over a heating pad. The temperature was monitored rectally. A skin incision was made mid-thigh with a medium curved scalpel and then scissors were used to expose the sciatic nerve. Approximately 1 cm of the main trunk proximal to the trifuraction was isolated and 4 strands of 4-0 chromic gut were tied around the nerve ∼ 1 mm apart under magnification. In a modification of the original method, a 2-0 prolene strand was placed between the nerve and the gut to which the suture was tightened. The prolene strand was then removed. This prevented over tightening and reduced subsequent motor paralysis. The muscle layers were then reopposed and sutured, and surgical staples were used to close the skin. On post-injury days 7 through 10, heat and mechanical measurements were obained for the ipsilateral hindpaw of each CCI animal. Immediately following the post-injury measurements, animals were randomized and received i.p. injections of vehicle or 20 mg/kg SBI26 (DMSO:cremophor:sterile saline 1∶1∶2 by volume). Up to 0.8 ml of drug or vehicle was injected. The observer was blinded as to administration of drug or vehicle. Thermal and mechanical measurements were performed at 1 and 4 h post-injection. Data were normalized to pre-injury baseline measurements for each animal.

T3 sequence (O15540 whole entry, species assumed): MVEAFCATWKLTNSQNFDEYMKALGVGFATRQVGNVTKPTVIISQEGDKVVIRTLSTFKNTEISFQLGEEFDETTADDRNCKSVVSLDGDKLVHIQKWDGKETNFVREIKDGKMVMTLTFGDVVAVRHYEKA
T2 sequence (P05413 whole entry, species assumed): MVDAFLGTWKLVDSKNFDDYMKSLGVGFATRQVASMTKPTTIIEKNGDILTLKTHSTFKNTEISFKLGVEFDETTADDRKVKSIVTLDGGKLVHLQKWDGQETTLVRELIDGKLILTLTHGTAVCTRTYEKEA
T1 sequence (Q01469 whole entry, species assumed): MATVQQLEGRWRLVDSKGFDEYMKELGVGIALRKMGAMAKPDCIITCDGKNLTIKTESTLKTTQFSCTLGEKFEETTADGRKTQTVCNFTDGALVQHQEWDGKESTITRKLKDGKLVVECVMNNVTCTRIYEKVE

Structure (SMILES): O=C(Nc1cccc2ccccc12)C1C(c2ccccc2)C(C(=O)Nc2cccc3ccccc23)C1c1ccccc1 (centres unmarked) [SBFI62, 2,4-diphenylcyclobutane-1,3-dicarboxylic acid di-1-naphthyl amide]
- Effect upon acetic acid-induced writhing [1]: without effect
- Ki (FABP5 [2]): 3300 ± 700 nM
- Ki (FABP3 [3]): 2600 ± 1100 nM
- Effect upon carrageenan-induced paw edema [4]: without effect
- Effect upon carrageenan-induced thermal hyperalgesia [4]: without effect
- Ki (FABP7 [5]): 6100 ± 500 nM
- Effect upon first phase of formalin-induced nociception [6]: without effect
- Effect upon second phase of formalin-induced nociception ([6]; second phase ∼15–45 min): without effect

Structure (SMILES): O=C(Nc1cccnc1)N1CCC(Cc2cccc(Oc3ccc(C(F)(F)F)cn3)c2)CC1 [PF-3845, reference compound]
- Antinociceptive effects in the acetic acid test after pretreatment with CB1 antagonist rimonabant ([1]; rimonabant 3 mg/kg 10 min before inhibitor): blocked

Structure (SMILES): O=C(O)C1C(c2ccccc2)C(C(=O)Nc2cccc3ccccc23)C1c1ccccc1 (stereo not drawn) [SBFI60, alpha-2,4-diphenylcyclobutane-1,3-dicarboxylic acid mono-1-naphthyl amide]
- Effect upon acetic acid-induced writhing [1]: without effect
- Ki (FABP5 [2]): 1600 nM
- Ki (FABP3 [3]): > 10000 nM
- Effect upon carrageenan-induced paw edema [4]: without effect
- Effect upon carrageenan-induced thermal hyperalgesia [4]: without effect
- Ki (FABP7 [5]): 300 nM
- Effect upon first phase of formalin-induced nociception [6]: reduced

Structure (SMILES): CCCCCCC(CCCCCCCCCCC(=O)O)N(C)c1ccc([N+](=O)[O-])c2nonc12 (centres unmarked) [NBD-stearate, 12-N-methyl-(7-nitrobenz-2-oxa-1,3-diazo)aminostearicacid]
- Kd (FABP5 [7]): 160 nM
- Kd (FABP3 [8]): 180 nM
- Kd (FABP7 [9]): 220 nM

Structure (SMILES): CCc1c(-c2ccccc2)c(-c2ccccc2)nn1-c1ccccc1-c1cccc(OCC(=O)O)c1 [BMS309403, reference compound]
- Cytotoxicity _50 values (HeLa cells): 11.3 ± 0.9 µM

Structure (SMILES): O=C(O)C1C(c2ccccc2)C(C(=O)Oc2ccc3ccccc3c2)C1c1ccccc1 (stereo not drawn) [SBFI50, alpha-2,4-diphenylcyclobutane-1,3-dicarboxylic acid mono-2-naphthyl ester]
- Effect upon acetic acid-induced writhing [1]: without effect
- Ki (FABP5 [2]): 1300 ± 200 nM
- Ki (FABP3 [3]): 3500 ± 300 nM
- Effect upon carrageenan-induced paw edema [4]: reduced
- Effect upon carrageenan-induced thermal hyperalgesia [4]: reduced
- Ki (FABP7 [5]): 600 ± 100 nM
- Effect upon first phase of formalin-induced nociception [6]: reduced
- Effect on mechanical thresholds in CCI rats (rats subjected to CCI; 1 and 4 h): Neither compound altered
- Effect on thermal hyperalgesia in CCI rats (rats subjected to CCI; measured 1 and 4 h post-injection): without effect
